Results: patent US8846719B2, “Isoxazolo-pyridine derivatives” (Roche Palo Alto LLC, priority 2007, dated 2014)
Like-named read-outs stand apart in the source and are kept apart here.

Target: human GABA A receptor α5β3γ2 (Homo sapiens (Human), UniProt P18507+P31644)
Test: [3H]flumazenil competition binding assay, human GABA A α5β3γ2 receptors expressed in HEK293 cells
Method: The affinity of compounds at GABA A receptor subtypes was measured by competition for [3H]flumazenil (85 Ci/mmol; Roche) binding to HEK293 cells expressing rat (stably transfected) or human (transiently transfected) receptors of composition α1β3γ2, α2β3γ2, α3β3γ2 and α5β3γ2.
Cell pellets were suspended in Krebs-tris buffer (4.8 mM KCl, 1.2 mM CaCl2, 1.2 mM MgCl2, 120 mM NaCl, 15 mM Tris; pH 7.5; binding assay buffer), homogenized by polytron for ca. 20 sec on ice and centrifuged for 60 min at 4° C. (50000 g; Sorvall, rotor: SM24=20000 rpm). The cell pellets were resuspended in Krebs-tris buffer and homogenized by polytron for ca. 15 sec on ice. Protein was measured (Bradford method, Bio-Rad) and aliquots of 1 mL were prepared and stored at −80° C.
Assays were incubated to equilibrium for 1 hour at 4° C. and harvested onto GF/C uni-filters (Packard) by filtration using a Packard harvester and washing with ice-cold wash buffer (50 mM Tris; pH 7.5). After drying, filter-retained radioactivity was detected by liquid scintillation counting. Ki values were calculated using Excel-Fit (Microsoft) and are the means of two determinations.

[1] = human receptor, displacement of [3H]flumazenil (0.5 nM), means of two determinations, read-out: hKi GABAAa5

| SMILES | Ki [1] [nM] | Ki [nM] |
| --- | --- | --- |
| Cc1onc(-c2ccccc2)c1COc1ccc(C(=O)NCC(=O)OC(C)(C)C)cn1 [Example 24, {[6-(5-Methyl-3-phenyl-isoxazol-4-ylmethoxy)-pyridine-3-carbonyl]-amino}-acetic acid tert-butyl ester] | 35 | – |
| CCOC(=O)C(C)NC(=O)c1ccc(OCc2c(-c3ccccc3)noc2C)nc1 (stereo not drawn) [Example 25, 2-{[6-(5-Methyl-3-phenyl-isoxazol-4-ylmethoxy)-pyridine-3-carbonyl]-amino}-propionic acid ethyl ester] | 20.2 | – |
| Cc1onc(-c2ccccc2)c1COc1ccc(C(=O)NC2CC2)cn1 [Example 27, N-Cyclopropyl-6-(5-methyl-3-phenyl-isoxazol-4-ylmethoxy)-nicotinamide] | 2.7 | – |
| Cc1onc(-c2ccccc2)c1COc1ccc(C(=O)NC2CCCCC2)cn1 [Example 30, N-Cyclohexyl-6-(5-methyl-3-phenyl-isoxazol-4-ylmethoxy)-nicotinamide] | 13.1 | – |
| Cc1onc(-c2ccccc2)c1COc1ccc(C(=O)NC2CCN(C(C)C)CC2)cn1 [Example 36, N-(1-Isopropyl-piperidin-4-yl)-6-(5-methyl-3-phenyl-isoxazol-4-ylmethoxy)-nicotinamide] | – | 9.9 |
| Cc1onc(-c2ccccc2)c1COc1ccc(C(=O)NC2CCCN(C(=O)OC(C)(C)C)C2)cn1 (stereo not drawn) [Example 38, 3-{[6-(5-Methyl-3-phenyl-isoxazol-4-ylmethoxy)-pyridine-3-carbonyl]-amino}-piperidine-1-carboxylic acid tert-butyl ester] | 43.5 | – |
| CCN1CCCC(NC(=O)c2ccc(OCc3c(-c4ccccc4)noc3C)nc2)C1 (stereo not drawn) [Example 39, N-(1-Ethyl-piperidin-3-yl)-6-(5-methyl-3-phenyl-isoxazol-4-ylmethoxy)-nicotinamide] | 5 | – |
| Cc1onc(-c2ccccc2)c1COc1ccc(C(=O)NC2CCCN(CC(=O)NCC(F)(F)F)C2)cn1 (stereo not drawn) [Example 44, 6-(5-Methyl-3-phenyl-isoxazol-4-ylmethoxy)-N-{1-[(2,2,2-trifluoro-ethylcarbamoyl)-methyl]-piperidin-3-yl}-nicotinamide] | 10.1 | – |
| Cc1onc(-c2ccccc2)c1COc1ccc(C(=O)Nc2ccccc2)cn1 [Example 48, 6-(5-Methyl-3-phenyl-isoxazol-4-ylmethoxy)-N-phenyl-nicotinamide] | 38 | – |
| Cc1onc(-c2ccccc2)c1COc1ccc(C(=O)N(C)C2CCOCC2)cn1 [Example 50, N-Methyl-6-(5-methyl-3-phenyl-isoxazol-4-ylmethoxy)-N-(tetrahydro-pyran-4-yl)-nicotinamide] | 20.2 | – |
| Cc1onc(-c2ccccc2)c1COc1ccc(C(=O)N2CCCCC2)cn1 [Example 51, [6-(5-Methyl-3-phenyl-isoxazol-4-ylmethoxy)-pyridin-3-yl]-piperidin-1-yl-methanone] | 50.8 | – |
| Cc1onc(-c2ccccc2)c1COc1ccc(C(=O)N2CCOCC2)cn1 [Example 53, [6-(5-Methyl-3-phenyl-isoxazol-4-ylmethoxy)-pyridin-3-yl]-morpholin-4-yl-methanone] | 23.6 | – |
| Cc1onc(-c2ccccc2)c1COc1ccc(C(=O)N2CCSCC2)cn1 [Example 54, [6-(5-Methyl-3-phenyl-isoxazol-4-ylmethoxy)-pyridin-3-yl]-thiomorpholin-4-yl-methanone] | 25.6 | – |
| Cc1onc(-c2ccccc2)c1COc1ccc(C(=O)N2CCS(=O)(=O)CC2)cn1 [Example 55, (1,1-Dioxo-1,6-thiomorpholin-4-yl)-[6-(5-methyl-3-phenyl-isoxazol-4-ylmethoxy)-pyridin-3-yl]-methanone] | 22.8 | – |
| Cc1onc(-c2ccccc2)c1COc1cc(OCc2ccccc2)ccn1 [Example 56, 4-Benzyloxy-2-(5-methyl-3-phenyl-isoxazol-4-ylmethoxy)-pyridine] | 35.1 | – |
| Cc1onc(-c2ccccc2)c1COc1cc(C2=CCN(C)CC2)ccn1 [Example 57, 1-Methyl-2′-(5-methyl-3-phenyl-isoxazol-4-ylmethoxy)-1,2,3,6-tetrahydro-[4,4′]bipyridinyl] | – | 32.1 |
| Cc1onc(-c2ccccc2)c1COc1cc(C(=O)NCC(F)(F)F)ccn1 [Example 58, 2-(5-Methyl-3-phenyl-isoxazol-4-ylmethoxy)-N-(2,2,2-trifluoro-ethyl)-isonicotinamide] | 37.8 | – |
| Cc1onc(-c2ccccc2)c1COc1cc(C(=O)NC2CCOCC2)ccn1 [Example 59, 2-(5-Methyl-3-phenyl-isoxazol-4-ylmethoxy)-N-(tetrahydro-pyran-4-yl)-isonicotinamide] | 55.4 | – |

Second part, led by results:

| Ki [1] [nM] | SMILES | Ki [nM] |
| --- | --- | --- |
| 2.8 | Cc1onc(-c2ccccc2)c1COc1ccc(C(=O)NCc2nc(C#N)cs2)cn1 [Example 21, N-(4-Cyano-thiazol-2-ylmethyl)-6-(5-methyl-3-phenyl-isoxazol-4-ylmethoxy)-nicotinamide] | – |
| 4.6 | Cc1onc(-c2ccccc2)c1COc1ccc(C(=O)NCc2ccccn2)cn1 [Example 22, 6-(5-Methyl-3-phenyl-isoxazol-4-ylmethoxy)-N-pyridin-2-ylmethyl-nicotinamide] | – |
| 6.5 | Cc1cc(CNC(=O)c2ccc(OCc3c(-c4ccccc4)noc3C)nc2)c(=O)[nH]n1 [Example 23, N-(6-Methyl-3-oxo-2,3-dihydro-pyridazin-4-ylmethyl)-6-(5-methyl-3-phenyl-isoxazol-4-ylmethoxy)-nicotinamide] | – |
| 2.8 | Cc1onc(-c2ccccc2)c1COc1ccc(C(=O)NC2CCC2)cn1 [Example 28, N-Cyclobutyl-6-(5-methyl-3-phenyl-isoxazol-4-ylmethoxy)-nicotinamide] | – |
| 3.9 | Cc1onc(-c2ccccc2)c1COc1ccc(C(=O)NC2CCCC2)cn1 [Example 29, N-Cyclopentyl-6-(5-methyl-3-phenyl-isoxazol-4-ylmethoxy)-nicotinamide] | – |
| 2.1 | Cc1onc(-c2ccccc2)c1COc1ccc(C(=O)NC2CCOCC2)cn1 [Example 31, 6-(5-Methyl-3-phenyl-isoxazol-4-ylmethoxy)-N-(tetrahydro-pyran-4-yl)-nicotinamide] | – |
| 4.9 | Cc1onc(-c2ccccc2)c1COc1ccc(C(=O)NC2CCS(=O)(=O)CC2)cn1 [Example 33, N-(1,1-Dioxo-hexahydro-1,6-thiopyran-4-yl)-6-(5-methyl-3-phenyl-isoxazol-4-ylmethoxy)-nicotinamide] | – |
| 9.4 | CCN1CCC(NC(=O)c2ccc(OCc3c(-c4ccccc4)noc3C)nc2)CC1 [Example 35, N-(1-Ethyl-piperidin-4-yl)-6-(5-methyl-3-phenyl-isoxazol-4-ylmethoxy)-nicotinamide] | – |
| 7.3 | Cc1onc(-c2ccccc2)c1COc1ccc(C(=O)NC2CCN(Cc3ccccc3)CC2)cn1 [Example 37, N-(1-Benzyl-piperidin-4-yl)-6-(5-methyl-3-phenyl-isoxazol-4-ylmethoxy)-nicotinamide] | – |
| 13.8 | CCOC(=O)CN1CCCC(NC(=O)c2ccc(OCc3c(-c4ccccc4)noc3C)nc2)C1 (stereo not drawn) [Example 40, (3-{[6-(5-Methyl-3-phenyl-isoxazol-4-ylmethoxy)-pyridine-3-carbonyl]-amino}-piperidin-1-yl)-acetic acid ethyl ester] | – |
| 9.3 | Cc1onc(-c2ccccc2)c1COc1ccc(C(=O)NC2CCCN(CC(=O)O)C2)cn1 (stereo not drawn) [Example 41, (3-{[6-(5-Methyl-3-phenyl-isoxazol-4-ylmethoxy)-pyridine-3-carbonyl]-amino}-piperidin-1-yl)-acetic acid] | – |
| 13.7 | CCNC(=O)CN1CCCC(NC(=O)c2ccc(OCc3c(-c4ccccc4)noc3C)nc2)C1 (stereo not drawn) [Example 42, N-(1-Ethylcarbamoylmethyl-piperidin-3-yl)-6-(5-methyl-3-phenyl-isoxazol-4-ylmethoxy)-nicotinamide] | – |
| 12.3 | Cc1onc(-c2ccccc2)c1COc1ccc(C(=O)NC2CCCN(CC(=O)NC3CC3)C2)cn1 (stereo not drawn) [Example 43, N-(1-Cyclopropylcarbamoylmethyl-piperidin-3-yl)-6-(5-methyl-3-phenyl-isoxazol-4-ylmethoxy)-nicotinamide] | – |
| 8.4 | Cc1onc(-c2ccccc2)c1COc1ccc(C(=O)NC2CCCN(CC(=O)NCCO)C2)cn1 (stereo not drawn) [Example 45, N-{1-[(2-Hydroxy-ethylcarbamoyl)-methyl]-piperidin-3-yl}-6-(5-methyl-3-phenyl-isoxazol-4-ylmethoxy)-nicotinamide] | – |
| 13.1 | Cc1onc(-c2ccccc2)c1COc1ccc(C(=O)NC2CCCN(CC(=O)NC3CCOCC3)C2)cn1 (stereo not drawn) [Example 46, 6-(5-Methyl-3-phenyl-isoxazol-4-ylmethoxy)-N-{1-[(tetrahydro-pyran-4-ylcarbamoyl)-methyl]-piperidin-3-yl}-nicotinamide] | – |
| 11.8 | Cc1onc(-c2ccccc2)c1COc1ccc(C(=O)NC(C)(C)C)cn1 [Example 47, N-tert-Butyl-6-(5-methyl-3-phenyl-isoxazol-4-ylmethoxy)-nicotinamide] | – |
| 12.1 | Cc1onc(-c2ccccc2)c1COc1ccc(C(=O)Nc2ccc(F)cc2)cn1 [Example 49, N-(4-Fluoro-phenyl)-6-(5-methyl-3-phenyl-isoxazol-4-ylmethoxy)-nicotinamide] | – |
| 16.8 | Cc1onc(-c2ccccc2)c1COc1ccc(C(=O)N2CCC(F)(F)CC2)cn1 [Example 52, (4,4-Difluoro-piperidin-1-yl)-[6-(5-methyl-3-phenyl-isoxazol-4-ylmethoxy)-pyridin-3-yl]-methanone] | – |
